Experimental findings from patent US10081609B2, “Compounds for inducing proliferation and differentiation of cells, and methods of use thereof” (The Broad Institute, Inc., priority 2013, dated 2018) are described below.

In assay [1] the test system is human primary hepatocytes. The experiment in a line: Expansion of human primary hepatocytes on growth-arrested J2-3T3 feeder layer in 12-well plates (imaging, cell counting, FACS, biochemical assays). To be noted: 20 μM on days 1 and 5, 7 days culture. The class given is cell-based. The method, then: Culture media were collected and frozen at −20° C. until analysis. Albumin content was measured through sandwich ELISA assays (MP Biomedicals, Fitzgerald, Bethyl Laboratories) using horseradish peroxidase detection and 3,3′,5,5′-tetramethylbenzidine (TMB, Fitzgerald Industries) as a substrate. Urea concentration was determined colorimetrically using diacetylmonoxime with acid and heat (Stanbio Labs). To quantify CYP450 activity, at 48 hours after small molecule exposure, cultures were incubated with substrates (coumarin from Sigma for CYP2A6, luciferin-IPA from Promega for CYP3A4) for 4 hours at 37° C. Incubation medium was collected and metabolite concentration quantified via luminescence, or fluorescence after hydrolization of potential metabolite conjugates by β-glucuronidase/arylsulfatase (Roche, Ind.).
To characterize the effects of FPH1 and FPH2 outside of the screening platform, human primary hepatocytes were seeded at a density of ˜20,000 cells/cm^2, into standard 12-well tissue culture plates on top of a feeder layer of growth-arrested J2-3T3s. These cells were cultured for 7 days, during which time a single compound/FPH was supplemented into the media on days 1 and 5 at a concentration of 20 μM. Treated hepatocyte colonies increased in size over time, with more hepatocytes populating each colony (FIG. 2D, 2E).
To characterize the degree of proliferation and to obtain a doubling time, cells were counted and fluorescence-activated cell sorting (FACS) was performed (FIG. 2H). For cell counting, FPH-treated cells were trypsinized after seven days in culture. The number of cells was quantified using an automated cell counter. The number of hepatocytes was obtained by subtracting the number of fibroblasts from the total number of cells found in the corresponding co-culture. For FACS analysis, growth arrested J2-3T3s were labeled with CM-DiI prior to initiation of co-culture so that hepatocytes can be identified via negative selection. To enable cell counting during FACS, each sample was supplemented with fluorescent counting beads. […] Over 7 days, FPH1 induced hepatocyte doublings at a rate that is consistent with reported liver regeneration kinetics in vivo.
To assess the phenotype of the treated hepatocytes, imaging, biochemical analyses and gene expression profiling were performed. […] Albumin secretion and urea synthesis, a surrogate marker of nitrogen metabolism, were both stable throughout FPH treatment (FIG. 3A top and middle). Metabolic functions were assessed via examinations of cytochrome P450 (CYP450) activity and canalicular transport. […] Gene expression profiling confirmed that there are no significant differences between FPH-treated and untreated hepatocytes (FIG. 3C).

The target of a further assay is eEF-2K (Homo sapiens, UniProt O00418). The experiment in a line: Kinome analysis (panel of kinases). The class given is biochemical. As to the method:
(§1) Selected compounds of the invention (FPH1 and FPH2; both at 1 μM concentration) were screened against a panel of kinases (FIG. 17).

For another assay, the target named is DAPK1 (Homo sapiens, UniProt P53355). The experiment in a line: Kinome analysis (panel of kinases). The class given is biochemical. The method, then:
as §1

A further assay has as its target CDK5 (Homo sapiens, UniProt Q00535). Kind of assay: Kinome analysis (panel of kinases). The class given is biochemical. The method, then:
as §1

Another assay addresses PI3KC2 α (Homo sapiens, UniProt O00443). Kind of assay: Kinome analysis (panel of kinases). The class given is biochemical. The method, then: as §1
The next assay concerns the target ALK (Homo sapiens, UniProt Q9UM73). Kind of assay: Kinome analysis (panel of kinases). The class given is biochemical. The method, then: as §1
In a further assay the target is FAK (Homo sapiens, UniProt Q05397). Kind of assay: Kinome analysis (panel of kinases). The class given is biochemical. As to the method: as §1
The next assay relates to PI3KCγ. The experiment in a line: Kinome analysis (panel of kinases). The settings on record: 1 μM. The class given is biochemical. The method, then: as §1
The target of a further assay is NEK2 (Homo sapiens, UniProt P51955). Kind of assay: Kinome analysis (panel of kinases). The class given is biochemical. As to the method:
as §1

For the next assay, the target named is CK1 γ2 (Homo sapiens, UniProt P78368). The experiment in a line: Kinome analysis (panel of kinases). The class given is biochemical. The method, then: as §1
A further assay deals with RSK2 (Homo sapiens, UniProt P51812). Kind of assay: Kinome analysis (panel of kinases). The class given is biochemical. As to the method: as §1
The target of another assay is FMS (Homo sapiens, UniProt P07333). Kind of assay: Kinome analysis (panel of kinases). The class given is biochemical. The method, then: as §1
Another assay deals with RSK4 (Homo sapiens, UniProt Q9UK32). The experiment in a line: Kinome analysis (panel of kinases). The class given is biochemical. As to the method: as §1
For another assay, the target named is MAPKAPKV (PRAK) (Homo sapiens, UniProt Q8IW41). Kind of assay: Kinome analysis (panel of kinases). The class given is biochemical. To be noted: read-out: MAPKAPKV (PRAK) inhibition. As to the method:
as §1

The target of another assay is CLK1 (Homo sapiens, UniProt P49759). The experiment in a line: Kinome analysis (panel of kinases). The class given is biochemical. The method, then: as §1
Another assay addresses EphB4 (Homo sapiens, UniProt P54760). Kind of assay: Kinome analysis (panel of kinases). The class given is biochemical. The method, then: as §1
Another assay deals with NEK9 (Homo sapiens, UniProt Q8TD19). Kind of assay: Kinome analysis (panel of kinases). The class given is biochemical. As to the method: as §1
Assay [2] relates to human primary hepatocytes. Kind of assay: High-throughput liver platform, primary screening: secreted albumin by competitive ELISA. The class given is cell-based. From the text: In order to evaluate the phenotype of treated cells, a secondary readout was included to quantify hepatocyte functions via competitive ELISA. This biochemical assay measured the level of secreted albumin as a marker for protein synthesis functions of the cultured hepatocytes (FIG. 1A bottom).
FIG. 1B top summarizes the workflow of the screen. Primary screening was done on human primary hepatocytes, preconditioned for seven days by non-parenchymal cells in the screening platform. Upon stabilization in vitro, cultures were treated with the chemical library for 48 hours. All compounds were tested in duplicates, at a single concentration of 15 μM. This single concentration was selected via a pilot screen of ˜2,000 small molecules. All 12,480 small molecules were initially tested on a single donor of cryopreserved hepatocytes (donor a) in order to eliminate noise from donor-to-donor variability. Following compound treatment, media supernatants were collected for functional analyses via ELISA and cultures were fixed in 4% paraformaldehyde for proliferation analyses via imaging.
In general terms: An ELISA detects its analyte on a solid surface through an enzyme-linked reagent.

Chain of FMS (P07333 20-972, species assumed): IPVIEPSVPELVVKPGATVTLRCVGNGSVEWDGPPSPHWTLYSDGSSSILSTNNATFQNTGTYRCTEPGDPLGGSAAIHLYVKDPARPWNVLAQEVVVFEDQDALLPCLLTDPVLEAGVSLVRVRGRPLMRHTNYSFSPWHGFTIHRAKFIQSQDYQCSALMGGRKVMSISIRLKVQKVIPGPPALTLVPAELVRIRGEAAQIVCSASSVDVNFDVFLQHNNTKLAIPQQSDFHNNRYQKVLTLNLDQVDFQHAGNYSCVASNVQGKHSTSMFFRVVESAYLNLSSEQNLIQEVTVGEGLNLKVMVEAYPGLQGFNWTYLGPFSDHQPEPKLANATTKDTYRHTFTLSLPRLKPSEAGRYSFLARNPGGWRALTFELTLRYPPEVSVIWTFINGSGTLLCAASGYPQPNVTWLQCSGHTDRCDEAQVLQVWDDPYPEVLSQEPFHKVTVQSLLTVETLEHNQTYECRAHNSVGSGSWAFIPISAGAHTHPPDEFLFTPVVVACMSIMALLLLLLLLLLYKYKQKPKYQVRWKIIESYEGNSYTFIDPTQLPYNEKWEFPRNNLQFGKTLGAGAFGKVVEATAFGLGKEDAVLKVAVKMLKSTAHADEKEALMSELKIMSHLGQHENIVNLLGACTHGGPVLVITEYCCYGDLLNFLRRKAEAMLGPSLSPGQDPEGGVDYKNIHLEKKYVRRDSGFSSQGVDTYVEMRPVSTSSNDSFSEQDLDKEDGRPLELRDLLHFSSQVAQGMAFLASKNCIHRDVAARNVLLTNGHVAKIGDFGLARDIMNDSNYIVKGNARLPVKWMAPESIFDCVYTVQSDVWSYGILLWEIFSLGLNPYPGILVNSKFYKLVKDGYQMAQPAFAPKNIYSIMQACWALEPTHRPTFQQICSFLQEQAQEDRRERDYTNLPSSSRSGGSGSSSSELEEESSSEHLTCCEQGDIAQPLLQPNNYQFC
Chain of ALK (Q9UM73 19-1620, species assumed): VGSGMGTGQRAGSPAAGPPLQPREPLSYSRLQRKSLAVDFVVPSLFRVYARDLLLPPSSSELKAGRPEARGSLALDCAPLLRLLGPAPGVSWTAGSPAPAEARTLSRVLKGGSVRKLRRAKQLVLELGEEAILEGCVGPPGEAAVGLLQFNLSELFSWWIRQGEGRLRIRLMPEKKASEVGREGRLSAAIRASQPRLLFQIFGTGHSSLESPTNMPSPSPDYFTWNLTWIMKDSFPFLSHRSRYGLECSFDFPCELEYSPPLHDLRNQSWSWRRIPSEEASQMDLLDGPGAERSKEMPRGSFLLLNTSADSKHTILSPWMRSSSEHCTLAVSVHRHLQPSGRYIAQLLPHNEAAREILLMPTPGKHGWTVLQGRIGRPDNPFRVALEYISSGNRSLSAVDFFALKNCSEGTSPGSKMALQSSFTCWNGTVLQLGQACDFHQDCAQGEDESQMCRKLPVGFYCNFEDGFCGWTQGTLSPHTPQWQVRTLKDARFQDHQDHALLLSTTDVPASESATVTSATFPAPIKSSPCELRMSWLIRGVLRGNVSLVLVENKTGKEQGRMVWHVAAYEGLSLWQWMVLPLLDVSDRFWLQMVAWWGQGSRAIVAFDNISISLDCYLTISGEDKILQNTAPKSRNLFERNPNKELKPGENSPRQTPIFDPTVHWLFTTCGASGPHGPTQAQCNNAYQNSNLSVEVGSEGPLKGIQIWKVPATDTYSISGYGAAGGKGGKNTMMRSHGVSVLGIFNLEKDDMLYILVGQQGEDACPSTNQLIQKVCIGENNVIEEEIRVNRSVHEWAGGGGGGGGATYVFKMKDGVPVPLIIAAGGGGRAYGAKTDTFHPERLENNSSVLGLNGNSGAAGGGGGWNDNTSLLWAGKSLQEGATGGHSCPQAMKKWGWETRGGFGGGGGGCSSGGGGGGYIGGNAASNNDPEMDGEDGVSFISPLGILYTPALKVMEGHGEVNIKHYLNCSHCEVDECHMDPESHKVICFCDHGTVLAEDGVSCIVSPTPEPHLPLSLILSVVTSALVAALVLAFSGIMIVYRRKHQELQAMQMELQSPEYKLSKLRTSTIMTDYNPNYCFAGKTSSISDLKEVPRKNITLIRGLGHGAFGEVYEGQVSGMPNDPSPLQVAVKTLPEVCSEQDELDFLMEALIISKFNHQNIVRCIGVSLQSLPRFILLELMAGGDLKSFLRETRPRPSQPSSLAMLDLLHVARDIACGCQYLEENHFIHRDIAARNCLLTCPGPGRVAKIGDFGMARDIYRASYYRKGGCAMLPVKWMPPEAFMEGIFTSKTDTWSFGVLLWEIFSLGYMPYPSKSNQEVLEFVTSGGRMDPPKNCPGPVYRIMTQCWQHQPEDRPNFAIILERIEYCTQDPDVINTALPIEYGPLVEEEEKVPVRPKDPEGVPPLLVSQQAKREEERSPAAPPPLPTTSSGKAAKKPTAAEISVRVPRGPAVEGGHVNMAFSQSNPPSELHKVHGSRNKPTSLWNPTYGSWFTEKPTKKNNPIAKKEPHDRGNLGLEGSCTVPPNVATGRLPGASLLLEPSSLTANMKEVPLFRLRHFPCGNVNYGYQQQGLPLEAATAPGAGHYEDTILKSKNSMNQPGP
Chain of CDK5 (Q00535 whole entry, species assumed): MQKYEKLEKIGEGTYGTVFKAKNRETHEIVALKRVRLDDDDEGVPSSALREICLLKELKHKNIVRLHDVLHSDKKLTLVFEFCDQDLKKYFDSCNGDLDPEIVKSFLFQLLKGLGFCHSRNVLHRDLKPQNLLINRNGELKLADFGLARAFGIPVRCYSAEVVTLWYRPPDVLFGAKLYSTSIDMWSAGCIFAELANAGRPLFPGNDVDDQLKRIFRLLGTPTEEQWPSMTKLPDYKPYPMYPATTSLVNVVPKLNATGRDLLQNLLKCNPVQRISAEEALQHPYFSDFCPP
Chain of CDK5 (Q15078 whole entry partner, species assumed): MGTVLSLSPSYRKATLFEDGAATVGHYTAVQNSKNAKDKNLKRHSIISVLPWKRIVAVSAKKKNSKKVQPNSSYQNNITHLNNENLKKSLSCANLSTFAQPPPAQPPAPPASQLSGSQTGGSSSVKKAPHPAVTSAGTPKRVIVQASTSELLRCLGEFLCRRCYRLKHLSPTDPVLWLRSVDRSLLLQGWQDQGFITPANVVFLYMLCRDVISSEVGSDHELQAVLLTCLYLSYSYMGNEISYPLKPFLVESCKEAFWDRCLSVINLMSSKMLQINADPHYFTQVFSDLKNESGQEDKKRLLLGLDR
Chain of PI3KC2 α (O00443 whole entry, species assumed): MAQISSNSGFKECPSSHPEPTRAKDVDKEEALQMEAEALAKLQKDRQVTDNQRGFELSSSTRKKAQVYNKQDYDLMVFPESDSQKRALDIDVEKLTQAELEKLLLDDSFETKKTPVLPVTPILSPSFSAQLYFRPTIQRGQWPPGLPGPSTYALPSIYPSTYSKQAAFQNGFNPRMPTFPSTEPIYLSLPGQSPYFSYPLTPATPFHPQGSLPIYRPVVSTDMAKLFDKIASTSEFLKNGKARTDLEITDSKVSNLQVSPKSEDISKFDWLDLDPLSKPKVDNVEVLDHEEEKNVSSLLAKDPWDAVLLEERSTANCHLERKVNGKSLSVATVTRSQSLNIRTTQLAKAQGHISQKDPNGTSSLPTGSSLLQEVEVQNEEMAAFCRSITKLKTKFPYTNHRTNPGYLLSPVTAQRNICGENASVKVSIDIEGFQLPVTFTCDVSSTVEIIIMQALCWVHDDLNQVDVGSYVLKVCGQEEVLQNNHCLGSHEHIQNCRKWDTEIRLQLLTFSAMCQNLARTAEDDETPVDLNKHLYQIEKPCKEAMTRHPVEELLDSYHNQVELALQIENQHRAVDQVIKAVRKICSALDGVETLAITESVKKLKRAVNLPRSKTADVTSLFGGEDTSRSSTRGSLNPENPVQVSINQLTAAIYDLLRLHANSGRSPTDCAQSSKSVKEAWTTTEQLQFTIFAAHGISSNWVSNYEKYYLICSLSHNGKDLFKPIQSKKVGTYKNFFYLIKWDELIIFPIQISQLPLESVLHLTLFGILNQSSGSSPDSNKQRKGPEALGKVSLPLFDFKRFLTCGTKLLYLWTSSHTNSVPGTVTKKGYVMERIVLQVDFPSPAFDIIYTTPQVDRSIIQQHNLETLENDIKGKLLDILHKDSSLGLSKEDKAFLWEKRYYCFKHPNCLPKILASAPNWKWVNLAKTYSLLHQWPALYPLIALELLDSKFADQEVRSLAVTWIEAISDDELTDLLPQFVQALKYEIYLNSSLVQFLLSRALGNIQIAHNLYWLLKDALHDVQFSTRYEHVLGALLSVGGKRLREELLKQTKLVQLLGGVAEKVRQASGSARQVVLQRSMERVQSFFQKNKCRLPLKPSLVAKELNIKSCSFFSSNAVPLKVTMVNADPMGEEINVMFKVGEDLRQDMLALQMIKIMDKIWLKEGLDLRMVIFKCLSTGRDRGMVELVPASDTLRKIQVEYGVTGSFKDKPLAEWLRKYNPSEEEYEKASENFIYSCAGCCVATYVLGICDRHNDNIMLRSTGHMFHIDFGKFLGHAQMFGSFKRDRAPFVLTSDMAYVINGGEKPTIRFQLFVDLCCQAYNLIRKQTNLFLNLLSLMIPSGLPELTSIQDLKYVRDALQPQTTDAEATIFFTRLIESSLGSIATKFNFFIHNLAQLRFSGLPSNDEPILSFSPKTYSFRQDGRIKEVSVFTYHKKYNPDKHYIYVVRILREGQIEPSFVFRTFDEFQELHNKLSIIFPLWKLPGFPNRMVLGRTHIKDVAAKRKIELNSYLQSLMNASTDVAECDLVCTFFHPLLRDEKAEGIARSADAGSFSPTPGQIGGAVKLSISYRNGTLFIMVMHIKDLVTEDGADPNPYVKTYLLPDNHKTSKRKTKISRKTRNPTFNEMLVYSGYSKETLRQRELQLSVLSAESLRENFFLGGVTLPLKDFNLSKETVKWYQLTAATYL

As a reminder, the inhibition is the percentage by which the read-out fell short of the control. Broadly, the remaining activity is the share of the control activity or signal that is left under treatment. As for `Cc1ccc(Cl)cc1N(CC(=O)Nc1c(F)cccc1F)S(C)(=O)=O` [FPH2, 2-(N-(5-chloro-2-methylphenyl)methylsulfonamido)-N-(2,6-difluorophenyl)acetamide], in [1], the “Ki67 staining / number of Ki67-positive nuclei” value was “more elevated”. The “increase in the area of albumin-positive colonies” value in assay [1] was at most 3.5 fold. The inhibition at 1 µM at eEF-2K was 6.7 to 18.4%; on DAPK1, 6.7 to 18.4%; against CDK5, 6.7 to 18.4%; against PI3KC2 α, 6.7 to 18.4%; against ALK, 23%; on FAK it was 6.7 to 18.4%. Also, the inhibition at 1 µM on NEK2 is 6.7 to 18.4%; against CK1 γ2, 6.7 to 18.4%; against RSK2, 6.7 to 18.4%; on FMS it was 28%; at RSK4 it was 6.7 to 18.4%; on MAPKAPKV (PRAK) it was 6.7 to 18.4%. The inhibition at 1 µM at CLK1 is 6.7 to 18.4%; at EphB4, 18.4 to 30%; against NEK9 it was 6.7 to 18.4%. The remaining activity at 1 µM at ALK is 77%; on FMS, 72%. Moreover, the PI3KCγ inhibition with PI3KCγ is 6.7-18.4%. For the same compound, the “albumin secretion during primary screening” value in assay [2] is on record as “similar, but weaker effects”.
